{
  "source": "patent US10493046B2",
  "about": "“5-hydroxytryptamine 1B receptor-stimulating agent for use as a promoter of satellite cells self-renewal and/or differentiation” (INSTITUT PASTEUR, priority 2015, dated 2019)",
  "key": {"Tibialis anterior": {"tested_on": "Tibialis anterior", "experiment": "Muscle regeneration after notexin injury of tibialis anterior", "assay_type": "in vivo, mouse", "description": "Animals were anesthetized with ketamine (Imalgene1000 100 mg/Kg Merial) and Xylazine (Rompun2% 20 mg/Kg Bayer) prior to injury. Animals were hydrated and treated with analgesic (Buprenorphin Axience 0.3 mg/kg) twice a day for 4 d following injury. For the injury, mice were anesthetized as previously described and 10 μl of 12.5 μg/ml Notexin (Lotaxan) was injected in the Tibialis anterior. All protocols were reviewed by the Institut Pasteur, the competent authority, for compliance with the French and European regulations on Animal Welfare and with Public Health Service recommendations. This project has been reviewed and approved (#2013-0044) by the Institut Pasteur ethic committee (C2EA 89-CETEA).\n(§1) Tibialis anterior (TA) was carefully dissected and snap frozen in liquid-nitrogen-cooled isopentane for a few minutes and stored at −80° C. prior to cryosectioning (10 μm sections). Sections were kept at room temperature overnight before staining. Sections were then rehydrated in PBS for 10 minutes and fixed in 10% formalin for 3 minutes. The sections were then routinely stained with haematoxylin and eosin (HE) using an automated stain machine or manually with red sirius.\n(§2) Immunostaining was performed on cryosections fixed with 4% paraformaldehyde (PFA EMS#15710) in cold PBS, permeabilized with 0.5% Triton X-100 20 min at room temperature, washed, and blocked with 10% BSA for 30 min. Sections were incubated with primary antibodies overnight at 4° C. (see Table 1 below) and with Alexa-conjugated secondary antibodies 1/250 and Hoechst for 45 minutes. Sections were then analysed using an automated axioscan (Zeiss) or inverted Observer.Z1 Apotome (Zeiss). For apoptosis assessment, cells were collected in 2% serum, spun on polyD-lysine (Sigma-Aldrich#P6407), and immediately fixed with PFA 4%.\nFor image analysis (fibrosis quantification), ImageJ 1.46r software was using between 10 different photos randomly taken per section and 3 sections minimum per experimental group. The pictures were converted in a binary image and the pixel values then collected. For fibre size, the sections were immunostained with rabbit anti Laminin (Sigma-Aldrich #L9393) diluted at 1/200, overnight at 4° C. Secondary Donkey ant Rabbit 488 (DL488 JacksonImmuno #711486152) were used at 1/200 45 minutes at room temperature. The fibre perimeter was done automatically by using Pixcavator® software."}, "satellite cells [1]": {"tested_on": "satellite cells", "experiment": "Satellite cells in vitro in plasma of treated mice (live videomicroscopy, immunostaining)", "assay_type": "cell-based, mouse", "settings": "for Reserve cells (quiescent Pax7 positive cells) 14 days post-plating: plasma from fluoxetine-treated animals", "description": "Muscle dissection was done as previously described in cold DMEM. Muscles were then chopped with small scissors and put in a 50 ml Falcon tube with collagenase 0.1% and trypsin 0.25% at 37° C. with gentle agitation. After 20 minutes, the supernatant was collected in 20% serum placed on ice, and the collagenase/trypsin solution was added to continue the digestion. Once muscle was completely digested, the solution was filtrated using 40 μm cell strainers. Satellite cells were cultured in 1:1 DMEM-Glutamax (Gibco#41965-039):MCDB201 (Sigma#M6770) containing 20% serum FBS (Biowest S1860). Medium was filtered using 0.22 μm filters. Cells were plated on Matrigel coating (BD Biosciences#354234) and kept in an incubator (37° C., 5% CO2). […] The thus-obtained supernatant replaced FBS in the culture medium; the rest of the medium was unchanged.\nCells isolated by FACS were plated overnight on a 24-well glass bottom plate (P24G-0-10-F; MatTek) coated with matrigel (BD Biosciences#354234) and placed in an incubator in pre-equilibrated medium (1:1 DMEM Glutamax: MCDB [Sigma-Aldrich], 20% FCS (Biowest S1860). The plate was then incubated at 37° C., 5% CO2 (Zeiss, Pecon). A Zeiss Observer.Z1 connected with a LCI PInN 10×/0.8 W phaseII objective and AxioCam camera piloted with AxioVision was used. Cells were filmed for up to 5 days, and images were taken every 30 min with brightfield and phase filters and MozaiX 3×3 (Zeiss). Raw data were transformed and presented as a video.\nThose results were confirmed in vitro (FIG. 7a). […] This difference was lost when SC were plated with GR127935 (p=0.4) (FIG. 7e). The faster exit of quiescence and higher division rates were also lost when adding GR127935 in vitro (FIGS. 7f,g). The effects of the plasma from fluoxetine-treated animals were persistent when adding MDL100907 (FIGS. 7b-g)."}, "Mdx mice": {"tested_on": "Mdx mice", "experiment": "Mdx mice (Duchenne muscular dystrophy model), muscle histology", "assay_type": "in vivo, mouse", "description": "as §1, §2\nThe fiber size was also overall bigger in Mdx treated-animals (4.241±0.9 pixels in treated vs. 3.192±0.3 in placebo p=0.051) (FIG. 8b). […] The number of vessels increased in the treated mice (1459±327 vessels per mm^2) when compared to the placebo (942.4±113 vessels […], p=0.008) (FIG. 8e). […] This observation is in line with the decreased infiltration of inflammatory cells observed in the muscle (9.6±3.7 Gr1+ cells observed per section in the placebo vs. 4±2.4 Gr1+ cells in the treated mice p=0.04) (FIG. 8i)."}, "satellite cells [2]": {"tested_on": "satellite cells", "experiment": "Satellite cell (SC) number in tibialis anterior of treated mice (histological count or FACS cytometry)", "assay_type": "in vivo, mouse", "settings": "for Number of SC: Tg:Pax7nGFP mice"}, "[3]": {"settings": "notexin injury after fluoxetine treatment"}, "[4]": {"settings": "20% plasma from fluoxetine treated C57Bl/6 mice, live-videomicroscopy"}, "[5]": {"settings": "fluoxetine P.O. 6 weeks, Mdx mice"}},
  "data": [
    {"compound": "COc1ccc(NC(=O)c2ccc(-c3ccc(-c4noc(C)n4)cc3C)cc2)cc1N1CCN(C)CC1", "note": "[GR127935]", "values": [
      {"measurement": "Effect of the antagonist on the beneficial effects of fluoxetine after injury", "setting": "Tibialis anterior; antagonist together with fluoxetine, SC, differentiating cells, fiber size, calcium deposits, fibrosis, Gr1 and F4/80 cells", "value": "suppressed the beneficial effects of fluoxetine treatment"},
      {"measurement": "Effect of GR127935 on the beneficial effects of vortioxetine after injury", "setting": "Tibialis anterior; vortioxetine 12 days-treatment plus GR127935, SC, differentiating cells, fiber size, calcium deposits, fibrosis, Gr1 and F4/80 cells", "value": "repressed the beneficial effects of the vortioxetine 12 days-treatment"},
      {"measurement": "Pax7 positive cells 4 days post-plating", "setting": "satellite cells [1]; plasma from fluoxetine treated animals incubated with GR127935", "value": 35.25, "unit": "%"},
      {"measurement": "Reserve cells (quiescent Pax7 positive cells) 14 days post-plating", "setting": "satellite cells [1]; GR127935 added in vitro", "value": 4.5, "unit": "%"},
      {"measurement": "MyoG expression difference when plated with GR127935", "setting": "satellite cells [1]; plasma from fluoxetine-treated mice plus GR127935", "value": "lost"},
      {"measurement": "Faster exit of quiescence and higher division rates when adding GR127935", "setting": "satellite cells [1]; plasma from fluoxetine-treated mice plus GR127935 in vitro", "value": "lost"},
      {"measurement": "Beneficial effects of fluoxetine when co-treated with 5-HT1B inhibitor", "setting": "Mdx mice; Mdx mice treated with fluoxetine and a 5-HT1B inhibitor", "value": "the beneficial effects were lost"},
      {"measurement": "Number of SC", "setting": "satellite cells [2]; GR127935 in osmotic pump together with fluoxetine P.O 6 weeks", "value": "4674±1414", "unit": "SC per TA"}
    ]},
    {"compound": "CNCCC(Oc1ccc(C(F)(F)F)cc1)c1ccccc1", "note": "(stereo not shown) [fluoxetine]", "values": [
      {"measurement": "Calcium deposits 14 days post-injury", "setting": "Tibialis anterior; [3]", "value": "3.2±3", "unit": "per mm^2"},
      {"measurement": "Differentiating (Myogenin+) cells 4 days post-injury vs placebo", "setting": "Tibialis anterior; [3]", "value": "more cells were already differentiating"},
      {"measurement": "Endomysial fibrosis 14 days post-injury", "setting": "Tibialis anterior; [3]", "value": "2.2±0.7 % of total muscle area"},
      {"measurement": "F4/80 inflammatory cells 14 days post-injury", "setting": "Tibialis anterior; [3]", "value": "4.7±2.7", "unit": "cells per section"},
      {"measurement": "Gr1+ inflammatory cells 14 days post-injury", "setting": "Tibialis anterior; [3]", "value": "4.1±2.6", "unit": "cells per section"},
      {"measurement": "Number of fibers 14 days post-injury vs placebo", "setting": "Tibialis anterior; [3]", "value": "remained the same"},
      {"measurement": "Regenerating fiber size 14 days post-injury", "setting": "Tibialis anterior; [3]", "value": "129±12.6", "unit": "μm^2"},
      {"measurement": "Number of SC 4 days post-injury", "setting": "Tibialis anterior; notexin injury after fluoxetine treatment, Tg:Pax7nGFP mice", "value": "459±283", "unit": "per mm^2"},
      {"measurement": "Number of vessels 28 days post-injury vs placebo", "setting": "Tibialis anterior; notexin injury after fluoxetine treatment, p=0.036", "value": "higher"},
      {"measurement": "Number of SC 28 days post-injury vs placebo", "setting": "Tibialis anterior; notexin injury after fluoxetine treatment, p=0.076", "value": "higher"},
      {"measurement": "Number of SC per TA after 3 rounds of injury", "setting": "Tibialis anterior; several rounds of injury after fluoxetine treatment", "value": "remained constant"},
      {"measurement": "Myogenine positive cells 4 days post-plating", "setting": "satellite cells [1]; 20% plasma from fluoxetine treated C57Bl/6 mice", "value": "34.75±6.3 % of total plated cells"},
      {"measurement": "Division rate", "setting": "satellite cells [1]; [4]", "value": "8.7 ± 0.7", "unit": "h"},
      {"measurement": "First satellite cells division, time post-plating", "setting": "satellite cells [1]; [4]", "value": 26.45, "unit": "h"},
      {"measurement": "Pax7 positive cells 4 days post-plating", "setting": "satellite cells [1]; plasma from fluoxetine treated animals", "value": 24, "unit": "%"},
      {"measurement": "Reserve cells (quiescent Pax7 positive cells) 14 days post-plating", "setting": "satellite cells [1]", "value": 9.4, "unit": "%"},
      {"measurement": "Myogenin (MyoG) expression increase", "setting": "satellite cells [1]; plasma from fluoxetine-treated mice vs placebo", "value": 3, "unit": "times increase"},
      {"measurement": "MyoD (activation marker) expression between conditions", "setting": "satellite cells [1]; plasma from fluoxetine-treated mice vs placebo vs GR127935", "value": "did differ at any time investigated"},
      {"measurement": "Fiber size", "setting": "Mdx mice; [5]", "value": "4.241±0.9", "unit": "pixels"},
      {"measurement": "Foci of necrotic fiber (necrotic area)", "setting": "Mdx mice; [5]", "value": "2890 ± 803", "unit": "µm²"},
      {"measurement": "Gr1+ cells in the muscle", "setting": "Mdx mice; [5]", "value": "4±2.4", "unit": "cells per section"},
      {"measurement": "Number of cycling satellite cells vs placebo", "setting": "Mdx mice; [5]", "value": "decreased"},
      {"measurement": "Number of regenerating foci vs placebo", "setting": "Mdx mice; [5]", "value": "decreased"},
      {"measurement": "Number of vessels", "setting": "Mdx mice; [5]", "value": "1459±327", "unit": "vessels per mm^2"},
      {"measurement": "Number of SC by histological count", "setting": "satellite cells [2]; fluoxetine 18 mg/kg, tibialis anterior, TgPax7nGFP mouse", "value": "16.3±5.4", "unit": "SC per mm^2"},
      {"measurement": "Number of SC", "setting": "satellite cells [2]; fluoxetine P.O 6 weeks and PBS in osmotic pump", "value": "7283±2325", "unit": "SC per TA"}
    ]}
  ]
}
